Test results as given in patent EP0486595B1, “Use of a coleus extract for skin pigmentation” (LVMH RECHERCHE, priority 1989, dated 1991).

Tests used:
mélanocytes murins [1] = assay: Melanin formation (melanogenesis stimulation) in cultured melanocytes, optical density at 475 nm; assay type: cell-based; conditions: for Mélanine >g pour 10⁶ mélanocytes / A: concentration 10 >g/ml; for A: relative to β-MSH 2.10⁻⁸ M
Source text: (§1) Des mélanocytes murins sont cultivés sur un milieu approprié de manière classique.
Au jour J = 0, le produit à tester est introduit dans le milieu de culture. […]
(§2) On procède à la lecture de la densité optique sur un spectrophotomètre à 475 nm, ce qui permet d'évaluer la quantité de mélanine formée par comparaison à la densité optique d'une solution de mélanine de concentration connue.
(§3) On procède également au comptage des cellules, et on calcule le taux de mélanine formée par cellule, par rapport à une culture témoin, sans addition de produit à tester.
(§4) L'extrait Coleus 5B, selon l'exemple 5b est testé en comparaison avec de la forskoline seule, utilisée à concentration équivalente, et avec un témoin positif consistant en 10⁻⁸ mole de β-MSH. Ainsi, on introduit au jour J=0 dans le milieu de culture de la forskoline à la concentration de 0,1 >g/ml.
(§5) Dans une autre culture, on introduit l'extrait de Coleus à une concentration déterminée de façon que le taux en forskoline soit également d'environ 0,1 >g/ml.
(§6) L'activité A de la stimulation de la mélanogénèse par les produits selon l'invention est calculée par la formule suivante : [formula] dans laquelle les grandeurs q représentent les quantités de mélanine formée qp = culture recevant le produit à tester q₊ = culture recevant la βMSH qo = culture témoin ne recevant aucun produit.
(§7) Par ailleurs, on a testé dans des conditions analogues les extraits de Coleus 5A et 5C respectivement obtenus par extraction par un mélange éthanol-eau 80:20 et par le dichlorométhane. On notera toutefois qu'il a été pris comme témoin positif une culture recevant de la β-MSH à la concentration de 2.10⁻⁸M.
(§8) On opère comme à l'exemple 6. La combinaison IBMX plus extrait de Coleus est testée en comparaison avec l'IBMX et l'extrait de Coleus seul, de même qu'avec la β-MSH à la concentration de 2.10⁻⁸ M prise comme témoin positif.

mélanocytes murins [2] = assay: as above; assay type: cell-based; conditions: for Activité A en % / A: 100 by definition; for Mélanine >g pour 10⁶ mélanocytes / A: β-MSH 2.10⁻⁸ M
Source text: as §1
Au jour J = 0, le produit à tester est introduit dans le milieu de culture.
Au jour J = 5, on prélève les cellules que l'on isole par centrifugation et on récupère le culot cellulaire que l'on dissout dans de la soude 0,5 N.
as §2, §3, §4, §5, §6, §7, §8

Compound: C=C[C@@]1(C)CC(=O)[C@]2(O)[C@@]3(C)[C@@H](O)CCC(C)(C)[C@@H]3[C@H](O)[C@H](OC(C)=O)[C@@]2(C)O1 [Forskoline, forskoline]
- Mélanine formée en >g pour 10⁶ cellules (mélanocytes murins [1]; J = 5, forskoline 0,1 >g/ml, extract dosed to a forskoline level of about 0,1 >g/ml): 92 ± 3 >g pour 10⁶ cellules
- Activité A en % (mélanocytes murins [1]; J = 5, forskoline level about 0,1 >g/ml, relative to β-MSH 10⁻⁸ mole = 100): 151%

Compound: β-MSH
- Activité A en % (mélanocytes murins [2]; 2.10⁻⁸M): 100%
- Mélanine formée en >g pour 10⁶ cellules (mélanocytes murins [2]; 2.10⁻⁸M, Table II positive control): 179 ± 4 >g pour 10⁶ cellules
- Mélanine >g pour 10⁶ mélanocytes (mélanocytes murins [2]; J = 4): 119 +/-7 >g pour 10⁶ mélanocytes
- A (mélanocytes murins [2]; J = 4): + 100
- Activité A en % (mélanocytes murins [2]; J = 5, 10⁻⁸ mole de β-MSH): 100%
- Mélanine formée en >g pour 10⁶ cellules (mélanocytes murins [2]; J = 5, positive control 10⁻⁸ mole de β-MSH): 70 >g pour 10⁶ cellules
- Mélanine >g pour 10⁶ mélanocytes (mélanocytes murins [2]; J = 5): 200 +/-2 >g pour 10⁶ mélanocytes
- A (mélanocytes murins [2]; J = 5): + 100

Compound: CC(C)Cn1c(=O)n(C)c(=O)c2[nH]cnc21 [IBMX, 3-isobutyl-1-méthylxanthine]
- Mélanine >g pour 10⁶ mélanocytes (mélanocytes murins [1]; J = 4): 64 +/-0 >g pour 10⁶ mélanocytes
- A (mélanocytes murins [1]; J = 4): + 39
- Mélanine >g pour 10⁶ mélanocytes (mélanocytes murins [1]; J = 5): 103 +/-2 >g pour 10⁶ mélanocytes
- A (mélanocytes murins [1]; J = 5): + 35
